Results: paper PMC10331595 (Redox Biology, 2023)
Like-named read-outs stand apart in the source and are kept apart here.

Tested on: NK-LAAO (native Naja kaouthia L-amino acid oxidase)
Type: biochemical
Conditions: 100 mM Tris-HCl pH 8.5, 25 °C

Compound: N=C(N)NCCC[C@H](N)C(=O)O [L-Arg]
- Km (0.125-4 mM substrate, 2 min): 3100 ± 448 µM

Compound: N[C@@H](CCC(=O)O)C(=O)O [L-Glu]
- Km (0.625-20 mM substrate, 240 min): 3560 ± 353 µM

Compound: CC(C)C[C@H](N)C(=O)O [L-Leu]
- Km (0.0625-4 mM substrate, 4 min): 637 ± 34.5 µM

Compound: CSCC[C@H](N)C(=O)O [L-Met]
- Km (0.03125-4 mM substrate, 2 min): 587 ± 9.5 µM

Compound: N[C@@H](Cc1c[nH]c2ccccc12)C(=O)O [L-Trp]
- Km (0.03125-1 mM substrate, 2 min): 471 ± 25.9 µM
